Patent US5378846A, “1,2,3,4-tetrahydropyrrolo-[1,2-a]-pyrazine derivatives” (Russian-American Institute For New Drug Development, priority 1993, dated 1995)
Where “and” joins values, the source holds several entries; their conditions need not be identical. Equal values may be shown once.

Assays:
[1] = test system: rat behavior in Vogel conflict test; experiment: Vogel conflict test (anxiolytic activity, punished responses in water-deprived rats); format: in vivo, outbred male albino rats; conditions: rat
Source text: Compounds according to the present invention were checked for their anxiolytic activity. Behaviour suppressed by punishment is a very reliable indicator of the anxiolytic activity of drugs. A variant of the conflict situation test was used to reveal anxiety in water-deprived rats whose licking was suppressed by shock (see Vogel et al., Phychopharmacologia, 21, 1-7 (1971); J. E. Barrett in Animal Models in Psychopharmacology, Advances in Pharmacological Sciences, 1991; and Birkhauser Verlag, Basel, p. 37.52, Molodavkin et al., Exper. Clin. Pharmacol., 56, (1993), which are incorporated herein by reference).
The experiments were carried out using outbred male albino rats (180-220 g). This experiment involved previous training of water-deprived rats to drink water from a trough. Next day electrical stimulation was given delivering 0.5 mA electric shocks through the trough and metal grid floor of the experimental chamber. A conflict situation was created by clashing motivations (survival and self defense). The degree of anxiolytic activity was estimated by the measurement of the amount of punished licks for 10 min. Each compound was administered intraperitoneally 45 min. before the conflict test.

[2] = test system: locomotor activity in mice; experiment: Locomotor activity in mice (actometer); format: in vivo, outbred male mice; conditions: i.p.
Method: (§1) Compounds according to the present invention were checked for their influence on gross behaviour. The experiments described herein (Examples 11, 12, 13, 14, and 15) were carried out using outbred male mice weighing approximately 18-24 g. Each substance was administered intraperitoneally 45 min. before the experiment. Locomotor activity was estimated individually for each animal for 3 min. using an actometer `Era-1` (Russia).

[3] = test system: duration of immobility in mice; experiment: Behavioural despair test (forced swimming); format: in vivo, outbred male mice; conditions: for Influence on duration of immobility, in words: forced swimming; for The duration of immobility: i.p.
Method: as §1
The influence of compounds on behavioral despair was studied according to the model described by Porsolt et al., Arch. int. pharmacodyn.et ther., 228, 327-[…] (1977), which is incorporated herein by reference. Mice, when forced to swim in a cylinder of water without the possibility of escape, rapidly adopt a characteristic immobile posture. […] The only movements they make are those necessary to keep their heads above water.

[4] = Acute toxicity in mice; conditions: mouse, in vivo, ip, mice, i.p., lethality 24 hours later, Table 6 (range in brackets beside); read-out: LD50
Method: as §1
The compounds of the present invention were checked for acute toxicity in outbred male mice (18-22 g.). They were administered intraperitoneally and the lethality was estimated 24 hours later (Table 6). In the dose range of 500-1000 mg/kg i.p. Compound 1 caused death in 50% of the animals. Compound 1 is almost 5 times less toxic than other compounds.

[5] = test system: aggressive behavior in mice; experiment: Antiaggressive activity (threshold of aggressive behavior, electrified floor); format: in vivo, outbred male mice
Method: as §1
The effect of Compound 1 on the threshold of the aggressive behavior was determined in the experiment on outbred mice (R. Tedesci et al., J. Pharmacol. Exp. Ther., 125, 28-34, (1959), which is incorporated herein by reference). The paired mice were placed on the electrified floor. The strength of the current, which provoked the fighting, was recorded.

[6] = test system: memory formation in rats; experiment: Passive avoidance test, step-through (memory formation, retention); format: in vivo, outbred male albino rats; conditions: rat, 5.0 mg/kg i.p., retention 24 hours later, 3 min
Method: The influence of Compound 1 on memory formation was studied in a passive avoidance test, step-through paradigm (equipment of Laffaette Co., USA). The experiments were carried out on outbred male albino rats ([…]). Compound 1 and other drugs were administered intraperitoneally 45 min. before the passive avoidance training. The retention was tested 24 hours later learning (painful electroshock in the dark compartment) by the measurement of the time spent in the dark compartment for 3 min.

[7] = test system: motor behavior in mice; experiment: Horizontal wire test (coordination of movements and myorelaxation); conditions: mice
Method: (§2) The influence of Compound 1 on the motor behavior was studied according to a "rotating rod" test and a "horizontal wire" test in outbred male mice (18-22 g). A rotating rod (2 cm diameter and 5 rpm speed) was used. Acquisition was defined as the ability to remain on the rotating rod for 2 min. Each animal had two trials. According to the "horizontal wire" test a mouse was hung on the wire (0.3 cm. diameter, wire was fixed horizontally 40 cm above the floor) by the forepaws. The ability to pull the hind legs up to the wire for 2 min. was a criterion of test performance.

[8] = Rotating rod test (coordination of movements and myorelaxation); conditions: mouse, in vivo
Method: as §2

[9] = test system: motor behavior in mice; experiment: as above; conditions: mice
Method: as §2

[10] = Horizontal wire test (coordination of movements and myorelaxation); conditions: mouse, in vivo
Method: as §2

[11] = 2.0 mg/kg i.p., 45 min before test, Table 1

SMILES	The number of punished responses [1, 11]	Influence on locomotor activity, in words [2]	The number of movements for 3 min., horizontal activity ([2]; 10.0 mg/kg)	The number of movements for 3 min., vertical activity ([2]; 10.0 mg/kg)	The number of movements for 3 min., horizontal activity ([2]; 20.0 mg/kg)	The number of movements for 3 min., vertical activity ([2]; 20.0 mg/kg)	Influence on duration of immobility, in words [3]	The duration of immobility ([3]; 10.0 mg/kg)	The duration of immobility ([3]; 20.0 mg/kg)	LD50 at 24 h [4]	also measured
CC(=O)N1CCn2c(CN(C)C)ccc2C1 [Compound 2, hydrooxalate of 2-acetyl-6-(dimethylaminomethyl)-1,2,3,4-tetrahydropyrrolo-[1,2-a]-pyrazine]	63.00 ± 35.38	decrease locomotor activity	524.4 ± 36.9	10.0 ± 2.1	489.1 ± 9.7	22.4 ± 3.0	increased the duration of immobility	203.4 ± 14.1 s	234.9 ± 12.6 s	340 mg/kg	–
CC(=O)N1CCn2c(CN3CCCCC3)ccc2C1 [Compound 3, 2-Acetyl-6-(Piperidinomethyl)-1,2,3,4-Tetrahydropyrrolo-[1,2-]-Pyrazine]	22.00 ± 4.86	decrease locomotor activity	532.5 ± 42.1	8.1 ± 1.9	442.7 ± 30.3	9.2 ± 4.4	increased the duration of immobility	209.3 ± 6.5 s	254.6 ± 10.9 s	414 mg/kg	–
CC(=O)N1CCn2c(CN3CCOCC3)ccc2C1 [Compound 4, 2-Acetyl-6-(Morpholinomethyl)-1,2,3,4-Tetrahydropyrrolo-[1,2-a]-Pyrazine]	9.25 ± 1.75	–	479.6 ± 22.8	17.6 ± 6.9	564.5 ± 22.5	24.7 ± 5.6	did not show any activity	197.3 ± 5.9 s	202.7 ± 6.7 s	105 mg/kg	–
CN(C)Cc1ccc2n1CCN(C(=O)c1ccccc1)C2 [Compound 5, 2-Benzoyl-6-(Dimethylaminomethyl)-1,2,3,4-Tetrahydropyrrolo-[1,2-]-Pyrazine]	85.25 ± 32.04	–	676.1 ± 34.5	36.1 ± 5.8	659.7 ± 32.7	36.6 ± 8.6	reduced the duration of immobility	189.4 ± 10.3 s and 218.3 ± 12.1 s	216.4 ± 14.2 s	77 mg/kg	–
O=C(O)C(=O)O.O=C(c1ccccc1)N1CCn2c(CN3CCCCC3)ccc2C1 [Compound 6, 2-Benzoyl-6-(Piperidinomethyl)-1,2,3,4-Tetrahydropyrrolo-[1,2-a]-Pyrazine Hydrooxalate]	30.75 ± 13.17	–	693.0 ± 25.3	16.5 ± 6.2	644.0 ± 30.4	19.9 ± 3.4	reduced the duration of immobility	201.7 ± 13.1 s	–	389 mg/kg	The duration of immobility ([3]; 1.0 mg/kg): 184.3 ± 11.7 s
O=C(O)C(=O)O.O=C(c1ccccc1)N1CCn2c(CN3CCOCC3)ccc2C1 [Compound 7, 2-Benzoyl-6-(Morpholinomethyl)-1,2,3,4-Tetrahydropyrrolo-[1,2-a]-Pyrazine Hydrooxalate]	25.00 ± 5.99	decrease locomotor activity	475.1 ± 11.2	13.7 ± 2.5	474.0 ± 14.7	12.4 ± 3.8	did not show any activity	169.3 ± 11.8 s	147.8 ± 7.1 s	115 mg/kg	–
CN1C(=O)CN=C(c2ccccc2)c2cc(Cl)ccc21 [Diazepam, reference compound]	–	–	–	–	–	–	–	–	–	–	The number of punished responses ([1]; i.p., dose 1.0 mg/kg, Table 2): 22.25 ± 10.89; The number of punished responses ([1]; i.p., dose 2.0 mg/kg, Table 2): 47.25 ± 22.49; Aggression threshold ([5]; 1.0 mg/kg i.p.): 45.4 ± 9.5 V; Aggression threshold ([5]; 5.0 mg/kg i.p.): 92.4 ± 15.6 V; The time spent in dark compartment [6]: 127.7 ± 21.1 s; The time spent in light compartment [6]: 52.3 ± 11.3 s; Disturbances according to horizontal wire test, effect in % ([7]; dose 1.0): 20%; Disturbances according to horizontal wire test, effect in % ([7]; dose 2.0): 40%; Disturbances according to horizontal wire test, effect in % ([7]; dose 5.0): 80%
CN1CCN=C(c2ccccc2)c2cc(Cl)ccc21 [Medazepam, reference compound]	–	–	–	–	–	–	–	–	–	–	Aggression threshold ([5]; 5.0 mg/kg i.p.): 32.2 ± 5.25 V; Aggression threshold ([5]; 10.0 mg/kg i.p.): 43.1 ± 4.2 V; The time spent in dark compartment [6]: 142.6 ± 19.58 s; The time spent in light compartment [6]: 37.4 ± 19.5 s; TD50 [8]: 5.2 mg/kg; Disturbances according to rotating rod test, effect in % ([9]; dose 2.5): 40%; Disturbances according to rotating rod test, effect in % ([9]; dose 5.0): 50%; Disturbances according to rotating rod test, effect in % ([9]; dose 10.0): 96%; TD50 [10]: 7.5 mg/kg; Disturbances according to horizontal wire test, effect in % ([7]; dose 2.5): 33%; Disturbances according to horizontal wire test, effect in % ([7]; dose 5.0): 50%; Disturbances according to horizontal wire test, effect in % ([7]; dose 10.0): 75%
